Where no end group is shown, it is not given here.
Key:
CCI rats [1] = type: in vivo, rat; conditions: i.t. administration, from peak effects of % MPE
Procedure: Implantation of i.t. catheters in rats was performed.
Thermal hyperalgesia was examined using an IITC analgesiometer (IITC Inc., Woodland Hills, Calif., USA). […] Paw withdrawal latency (PWL) in seconds was measured with a cutoff time of 30 seconds. PWL was recorded at 30, 60, 90, 120, 150, and 180 minutes after PCD-1 or gabapentin injection. PWL (s) was transformed to a percentage of the maximum possible effect (% MPE) using the following formula: % MPE=(post-drug latency−baseline)/(cutoff−baseline)×100%, where the post-drug latency was the response measured at 0, 30, 60, 90, 120, 150, or 180 minutes after injection of PCD-1, gabapentin, or vehicle. The baseline was the response measured immediately prior to i.t. injection, and the cutoff time was 30 seconds.

CCI rats [2] = test system: CCI rats
Procedure: The rat model of chronic constriction injury (CCI) was performed by following the previous reports or research. Implantation of i.t. catheters in rats was performed. The i.t. catheters (PE5 tubes: 9-cm long, 0.008-inch inner diameter, 0.014-inch outer diameter; Spectranetics, Colorado Springs, Colo., USA) were inserted via the atlanto-occipital membrane into the i.t. space at the level of the lumbar enlargement of the spinal cord, and externalized and fixed to the cranial aspect of the head. Five days after i.t. catheterization, CCI or mononeuropathy was induced by following a previous report. The 5-mm-long nerve segment of right sciatic nerve at the mid-thigh level was isolated from the surrounding tissues. Four ligatures (4-0 chromic gut) were loosely tied around the sciatic nerve with 1-mm intervals, and the wound was closed with sutures.
The narrow beam used in the present invention was a wooden beam 80 cm in length and 2.5 cm in width, suspended 100 cm from the ground by wooden supports at either end. Foam padding (1 m wide and approximately 12 cm thick) was placed beneath the beam to prevent injury to the rat in case of a fall. The cutoff time to cross the beam was 15 seconds for each rat. Rats were pre-trained before the test.

RAW264.7 cells = test system: RAW264.7 cells; set-up: dose or concentration left out as unconfirmed; conditions: PCD-1 for 24 h
Procedure: (A) RAW264.7 cells are treated with the indicated doses of PCD-1 for 24 h, and cell viability is then measured by Alamar blue assay to assess cytotoxicity.
In order to investigate regulation of iNOS and COX-2 by PCD-1, mouse macrophage and immune cells were treated with non-cytotoxic doses of PCD-1, and the effects on protein expression were examined.

rats = rats treated with PCD-1

Row | Compound | median effective dose (ED50) for anti-thermal hyperalgesia (CCI rats [1]) | latency to initiate crossing and total time to cross the beam (CCI rats [2]; CCI rats+PCD-1 (20 μg) vs CCI rats+vehicle, 0 to 480 minutes) | locomotor function (CCI rats [2]; rats, i.t. 20 μg) | Proliferation of RAW264.7 cells (cell viability, Alamar blue) (RAW264.7 cells) | alterations of external behavior (rats)
1 | NCC1(CC(=O)O)CCCCC1 [gabapentin, reference compound] | 2.3 ± 1.5 µg |  |  |  | 
2 | FFHHIFRGIVHVGKTIHRLVTG [PCD-1, Piscidin-1] [listing 1 of 2 here] | 9.5 ± 3.2 µg |  |  |  | 
3 | FFHHIFRGIVHVGKTIHRLVTG [PCD-1, Piscidin-1] [listing 2 of 2 here] |  | No significant differences | did not affect | unaffected | nor did it result in any obvious alterations
